Measured values from patent US8680282B2, “Cyclic inhibitors of carnitine palmitoyltransferase and treating cancer” (University Health Network, priority 2007, dated 2014).

Experiments:
Assay in all cases: Cancer cell growth inhibition, SRB assay
H358 = assay type: cell-based, human; design: Percentage of Growth Inhibition: unit not given here; conditions: SRB at Day 6; for Percentage of Growth Inhibition: H358, at 10 μM, NE = no activity at 10 micromolar; for GI50: Homo sapiens, NCI-H358, 144 h, H358 (Lung), triplicate
Method: (§1) Human cancer cells (MCF-7, H358, H460, HCT116 p53^+/+, HCT116 p53^−/−, A172, PC-3, DU-145 and SW626) were maintained in DMEM medium containing 10% Fetal Bovine Serum (FBS) (Invitrogen, Burlington, ON, Canada) and normal cells HMEC, 184A1, NHBE and PrEC were cultured in MEGM, MEGM plus transferring and cholera toxin, BEGM and PrEGM supplemented with various growth factors (Cambrex, Charles city, Iowa, USA), respectively.
(§2) Compounds of Examples S1 to S30, and 4-(carboxymethyl)-4-(6-(3-hexyloxy)phenoxy)hexanoamido)-1,1-dimethylpiperidinium 2,2,2-trifluoroactate (“Compound A”) were tested in this example. Each of the tested compounds was dissolved in DMSO and further diluted in cell culture medium for the experiments performed. Cells were seeded into 96-well plates with 1,500-5,000 cells/well according to cell growth rate. After 24 h, DMEM medium containing 10% FBS were changed to DMEM containing 3% FBS for cancer cells. The compound was added into the cell culture at the indicated concentrations, and the final concentration of DMSO was adjusted to a final concentration of 0.1%. Cell viability was assessed by Sulforhodamine B (SRB) assay at Day 6.
(§3) Sulforhodamine B (SRB) (Sigma, Oakville, ON, Canada) is a water-soluble dye that binds to the basic amino acids of the cellular proteins. Thus, colorimetric measurement of the bound dye provides an estimate of the total protein mass that is related to the cell number. The cells were fixed in situ by gently aspirating off the culture media and adding 50 ul of cold 10% Tri-chloroacetic Acid (TCA) per well and incubated at 4° C. for 30-60 min. The plates were washed five times with water and allowed to air dry for 5 min. 50 ul of 0.4% (w/v) SRB dissolved in 1% (v/v) acetic acid were added into each well, plates were then incubated at RT for 30 min for staining, washed four times with 1% acetic acid to remove any unbound dye and then allowed to air dry for 5 min. Stain was solubilized with 100 ul of 10 mM Tris pH 10.5 per well. Absorbance was read at 570 nm on a spectrophotometer. GI50 (compound concentration required for 50% of growth inhibition) was calculated using GraphPad Prism 4.0 software (GraphPad Software, Inc., San Diego, Calif., USA). Growth inhibition (%) was determined as percentage of cells remaining compared to the DMSO-treated cells as control.

PC-3 = assay type: cell-based, human; conditions: SRB at Day 6; for Percentage of Growth Inhibition: PC-3, at 10 μM, NE = no activity at 10 micromolar; for GI50: Homo sapiens, 144 h, PC-3 (Prostate), triplicate
Method: as §1, §2, §3

A172 = assay type: cell-based, human; conditions: SRB at Day 6; for Percentage of Growth Inhibition: A172, at 10 μM, NE = no activity at 10 micromolar; for GI50: Homo sapiens, A 172, 144 h, A172 (Brain), triplicate
Method: as §1, §2, §3

Hs578T = assay type: cell-based; conditions: Homo sapiens, Hs-578T, 144 h; Hs578T (Breast); SRB at Day 6; triplicate
MDA-231 = assay type: cell-based, human; conditions: SRB at Day 6; for GI50: Homo sapiens, MDA-MB-231, 144 h, MDA-231 (Breast), triplicate
H460 = assay type: cell-based, human; conditions: SRB at Day 6; for GI50: Homo sapiens, NCI-H460, 144 h, H460 (Lung), triplicate
Method: as §1, §2, §3

Caov-3 = assay type: cell-based; conditions: Homo sapiens, 144 h; Caov-3 (Ovarian); SRB at Day 6; triplicate
HCT-8 = assay type: cell-based, human; conditions: at 10 μM, SRB at Day 6

Row | SMILES | Percentage of Growth Inhibition (H358) | GI50 (H358) [µM] | GI50 (Hs578T) [µM] | GI50 (PC-3) [µM] | GI50 (A172) [µM] | GI50 (Caov-3) [µM] | other results
1 | O=C(O)CC1(NC(=O)c2ccc(C#Cc3ccccc3)o2)CNC1 [Example S26, 3-(carboxymethyl)-3-(5-(phenylethynyl)furan-2-carboxamido)-azetidinium 2,2,2-trifluoroacetate] | 0.1437 | – | – | – | – | – | –
2 | C[N+]1(C)CCC(CC(=O)O)(NC(=O)c2ccc(C#Cc3ccccc3)o2)CC1 [Example S6, 4-(Carboxymethyl)-1,1-dimethyl-4-(5-(phenylethynyl)furan-2-carboxamido)-piperidinium 2,2,2-trifluoroacetate] | 0.1074 | – | – | – | – | – | Percentage of Growth Inhibition (PC-3): 0.03591%; Percentage of Growth Inhibition (A172): 0.05672%
3 | CCCCCCCCc1ccc(NC(=O)NC2(CC(=O)O)CCC[NH+](C)C2)cc1 (stereo not drawn) [Example S9, 3-(Carboxymethyl)-1-methyl-3-(3-(4-octylphenyl)ureido)piperidinium 2,2,2-trifluoroacetate] | – | – | – | – | – | – | Percentage of Growth Inhibition (PC-3): 0.2585%
4 | CCCCCc1ccc(S(=O)(=O)NC2(CC(=O)O)C[N+](C)(C)C2)cc1 [Example S29, 3-(carboxymethyl)-1,1-dimethyl-3-(4-pentylphenylsulfonamido)-azetidinium 2,2,2-trifluoroacetate] | – | 86 | > 50 | > 50 | > 50 | – | GI50 (MDA-231): > 50 µM
5 | CCCCCCCCc1ccc(NC(=O)NC2(CC(=O)O)CC[N+](C)(C)CC2)cc1 [Example S2, 4-(Carboxymethyl)-1,1-dimethyl-4-(3-(4-octylphenyl)ureido)piperidinium 2,2,2-trifluoroacetate] | – | 3.1 | 50 | 8.2 | 1.8 | – | GI50 (H460): 1.8 µM
6 | C[N+]1(C)CCC(CC(=O)O)(NC(=O)c2ccc(CCc3ccccc3)o2)CC1 [Example S5, 4-(Carboxymethyl)-1,1-dimethyl-4-(5-phenethylfuran-2-carboxamido)-piperidinium 2,2,2-trifluoroacetate] | 0.08927 | – | – | – | – | – | Percentage of Growth Inhibition (A172): 0.01342%
7 | CCCCCCCCc1ccc(NS(=O)(=O)NC2(CC(=O)O)CCCN(C)C2)cc1 (stereo not drawn) [Example S15, 3-(carboxymethyl)-1-methyl-3-(N-(4-octylphenyl)sulfamoylamino)-piperidinium 2,2,2-trifluoroacetate] | – | 12 | 25 | 2.8 | 2.7 | 4 | –
8 | CCCCCCCCc1ccc(N(C)S(=O)(=O)NC2(CC(=O)O)CCC[N+](C)(C)C2)cc1 (stereo not drawn) [Example S30, 3-(carboxymethyl)-1,1-dimethyl-3-(N-methyl-N-(4-octylphenyl)-sulfamoylamino)piperidinium 2,2,2-trifluoroacetate] | – | 2.9 | 3 | 0.7 | 0.6 | – | –
9 | CCCCCc1ccc(S(=O)(=O)NC2(CC(=O)O)CCN(C)CC2)cc1 [Example S3, 4-(carboxymethyl)-1-methyl-4-(4-pentylphenylsulfonamido)piperidinium 2,2,2-trifluoroacetate] | 0.4638 | – | – | – | – | – | –
10 | CCCCCCCCc1ccc(NC(=O)NC2(CC(=O)O)CC[N+](C)(C)C2)cc1 (stereo not drawn) [Example S18, 3-(carboxymethyl)-1,1-dimethyl-3-(3-(4-octylphenyl)ureido)-pyrrolidinium 2,2,2-trifluoroacetate] | – | 2.7 | 26 | 6.6 | 1.9 | – | GI50 (H460): 2.2 µM
11 | CCCCCc1ccc(S(=O)(=O)NC2(CC(=O)O)CN(C)C2)cc1 [Example S27, 3-(carboxymethyl)-1-methyl-3-(4-pentylphenylsulfonamido)azetidinium 2,2,2-trifluoroacetate] | 0.07312 | – | – | – | – | – | Percentage of Growth Inhibition (HCT-8): 0.09153%; Percentage of Growth Inhibition (PC-3): 0.0865%; Percentage of Growth Inhibition (H460; H460, at 10 μM, NE = no activity at 10 micromolar): 0.00556%; Percentage of Growth Inhibition (MDA-231; MDA-231, at 10 μM, NE = no activity at 10 micromolar): 0.1338%
12 | CCCCCCCCc1ccc(NS(=O)(=O)NC2(CC(=O)O)CCN(C)CC2)cc1 [Example S7, 4-(carboxymethyl)-1-methyl-4-(N-(4-octylphenyl)sulfamoylamino)-piperidinium 2,2,2-trifluoroacetate] | – | 20 | > 50 | 6 | 15 | 22 | –
13 | CCCCCCCCCCc1ccc(C(=O)NC2(CC(=O)O)CC[N+](C)(C)C2)cc1 (stereo not drawn) [Example S22, 3-(Carboxymethyl)-3-(4-decylbenzamido)-1,1-dimethylpyrrolidinium 2,2,2-trifluoroacetate] | 0.8129 | – | – | – | – | – | Percentage of Growth Inhibition (PC-3): 0.4436%; Percentage of Growth Inhibition (A172): 0.1249%
14 | CCCCCc1ccc(S(=O)(=O)NC2(CC(=O)O)CC[N+](C)(C)C2)cc1 (stereo not drawn) [Example S20, 3-(carboxymethyl)-1,1-dimethyl-3-(4-pentylphenylsulfonamido)-pyrrolidinium 2,2,2-trifluoroacetate] | 0.2773 | – | – | – | – | – | Percentage of Growth Inhibition (A172): 0.1176%
15 | CCCCCCCCc1ccc(NC(=O)NC2(CC(=O)O)CNC2)cc1 [Example S23, 3-(carboxymethyl)-3-(3-(4-octylphenyl)ureido)azetidinium 2,2,2-trifluoroacetate] | – | 14 | 45 | 24 | 7.2 | 17 | –
16 | CCCCCCCCCCc1ccc(C(=O)NC2(CC(=O)O)CCN(C)C2)cc1 (stereo not drawn) [Example S21, 3-(carboxymethyl)-3-(4-decylbenzamido)-1-methylpyrrolidinium 2,2,2-trifluoroacetate] | 0.6802 | – | – | – | – | – | Percentage of Growth Inhibition (PC-3): 0.1562%; Percentage of Growth Inhibition (A172): 0.1417%
17 | CCCCCCCCc1ccc(NS(=O)(=O)NC2(CC(=O)O)CC[N+](C)(C)CC2)cc1 [Example S8, 4-(carboxymethyl)-1,1-dimethyl-4-(N-(4-octylphenyl)sulfamoylamino)piperidinium 2,2,2-trifluoroacetate] | – | 0.9 | 26 | 1.7 | 2.2 | 2 | –
18 | CCCCCCCCc1ccc(NC(=O)NC2(CC(=O)O)CCC[N+](C)(C)C2)cc1 (stereo not drawn) [Example S10, 3-(carboxymethyl)-1,1-dimethyl-3-(3-(4-octylphenyl)ureido)-piperidinium 2,2,2-trifluoroacetate] | – | 1 | 39 | 0.9 | 4.6 | – | –
19 | CCCCCCCCc1ccc(NS(=O)(=O)NC2(CC(=O)O)CCC[N+](C)(C)C2)cc1 (stereo not drawn) [Example S16, 3-(carboxymethyl)-1,1-dimethyl-3-(N-(4-octylphenyl)sulfamoylamino)-piperidinium 2,2,2-trifluoroacetate] | – | 1.4 | 17 | 2.1 | 1.1 | 2.5 | GI50 (MDA-231): 0.5 µM
20 | CCCCCCCCc1ccc(NC(=O)NC2(CC(=O)O)C[N+](C)(C)C2)cc1 [Example S24, 3-(Carboxymethyl)-1,1-dimethyl-3-(3-(4-octylphenyl)ureido)azetidinium 2,2,2-trifluoroacetate] | – | 19 | 46 | 21 | 41 | 45 | –
